Laboratory results taken from patent US9328131B2, “Benzimidazolium compounds” (Boehringer Ingelheim International GmbH, priority 2013, dated 2016).
pIC50: −log10 of the molar value.

Tested on: not listed separately
Assay: Permeability in CALU-3 cells
Assay type: in vitro ADME
Settings: human; apical-to-basal, CALU-3 monolayers, pH 7.4, 37° C., 10 μM compound
Description: Permeability in CALU-3 cells:
Permeability measurements across polarized, confluent CALU-3 cell monolayers grown on permeable filter supports are used to provide information on the potential of a compound to pass the lung epithelium. Apparent permeability coefficients (Papp) of the compounds across the CALU-3 cell monolayers are measured (pH 7.4, 37° C.) in apical-to-basal (AB) and basal-to-apical (BA) transport direction.
CALU-3 cells (1−2×10^5 cells/1 cm^2 area) are seeded on filter inserts (Costar transwell polycarbonate filters, 0.4 μm pore size) and cultured (DMEM) for 10-12 days until tight monolayers are formed. Compounds of interest are dissolved in appropriate solvent (DMSO, 10 mM stock solution). Stock solutions are diluted with HTP-4 buffer (128.13 mM NaCl, 5.36 mM KCl, 1 mM MgSO4, 1.8 mM CaCl2, 4.17 mM NaHCO3, 1.19 mM Na2HPO4×7H2O, 0.41 mM NaH2PO4×H2O, 15 mM HEPES, 20 mM glucose, 0.25% BSA, pH 7.4) to prepare the transport solutions (10 μM compound, final DMSO<=0.5%). The transport solution (TL) is applied to the apical or basolateral donor side for measuring A-B or B-A permeability (3 filter replicates), respectively. The receiver side contains the same buffer as the donor side. After 30 min of accommodation, samples are collected at the start t0=0 min and at the end of the experiment tn=90 min from the donor and at 0, 30, 60, and 90 min also from the receiver chamber. Volume removed is replenished by HTP-4 buffer. The compound concentration in the samples is measured by HPLC-MS/MS or scintillation counting. The permeability coefficient (Papp) and efflux ratio are calculated according to: Papp[cm/s]=(concentration receiver[nM]*volume receiver[mL]/time interval[sec])*(1/filter area)*(1/donor concentration[nM])
With example compounds given above, the following permeability values were determined in the CALU-3 cells assay: […]

Structure (SMILES)	Papp A→B at 90 min, 10 μM	Papp A→B
CCOP(=O)(OCC)c1ccc(CCC[n+]2c(CNC(=O)c3nc(Cl)c(N)nc3N)n(CC)c3cc(OC)ccc32)cc1.O=C([O-])C(F)(F)F [Example 1.1]	0.16 ×10⁻⁶ cm/s	
CCn1c(CNC(=O)c2nc(Br)c(N)nc2N)[n+](CCOCCOCCO)c2ccc(OC)cc21.O=C([O-])C(F)(F)F [Example 2.1]	0.23 ×10⁻⁶ cm/s	
CC[n+]1c(CNC(=O)c2nc(Cl)c(N)nc2N)n(C2CCN(C(C)=O)CC2)c2ccccc21.O=C[O-] [Example 3.1]	1.7 ×10⁻⁶ cm/s	
CC[n+]1c(CNC(=O)c2nc(Cl)c(N)nc2N)n(CCCP(=O)(O)O)c2ccc(OC)cc21.O=C([O-])C(F)(F)F [Example 4.1]	< 0.34 ×10⁻⁶ cm/s	
CCOP(=O)([O-])CCCn1c(CNC(=O)c2nc(Cl)c(N)nc2N)[n+](CC)c2cc(OC)ccc21 [Example 5.1]		0.17 ×10⁻⁶ cm/s

Same assay, conditions: human; basal-to-apical, CALU-3 monolayers, pH 7.4, 37° C., 10 μM compound

Structure (SMILES)	Papp B→A at 90 min, 10 μM	Papp B→A
CCOP(=O)(OCC)c1ccc(CCC[n+]2c(CNC(=O)c3nc(Cl)c(N)nc3N)n(CC)c3cc(OC)ccc32)cc1.O=C([O-])C(F)(F)F [Example 1.1]	0.28 ×10⁻⁶ cm/s	
CCn1c(CNC(=O)c2nc(Br)c(N)nc2N)[n+](CCOCCOCCO)c2ccc(OC)cc21.O=C([O-])C(F)(F)F [Example 2.1]	0.4 ×10⁻⁶ cm/s	
CC[n+]1c(CNC(=O)c2nc(Cl)c(N)nc2N)n(C2CCN(C(C)=O)CC2)c2ccccc21.O=C[O-] [Example 3.1]	0.45 ×10⁻⁶ cm/s	
CC[n+]1c(CNC(=O)c2nc(Cl)c(N)nc2N)n(CCCP(=O)(O)O)c2ccc(OC)cc21.O=C([O-])C(F)(F)F [Example 4.1]	0.08 ×10⁻⁶ cm/s	
CCOP(=O)([O-])CCCn1c(CNC(=O)c2nc(Cl)c(N)nc2N)[n+](CC)c2cc(OC)ccc21 [Example 5.1]		0.05 ×10⁻⁶ cm/s

Tested on: Mouse kidney M-1 cells
Assay: Ussing Chamber assay: inhibition of amiloride sensitive short circuit current
Assay type: cell-based
Settings: compound in the apical solution, 37° C.
Description: Ussing Chamber: Mouse kidney M-1 cells were cultivated in DMEM containing 5% FCS and 5 μM dexamethasone for 10 to 12 days on polyester transwell filters. Filters were inserted into a teflon-coated well-plate which fit into the ussing chamber system. Prior to measurement the medium of M−1 cells was replaced with Caco-2 transport buffer (Invitrogen, Germany). During measurements, the Ussing chamber temperature was kept at 37° C. Short circuit currents (l_sc) were measured in the voltage-clamp mode with the software package Lab View for data acquisition and analysis. The transepithelial electrical resistance (TEER) was determined by the application of voltage steps of ±5 mV every 5 sec. Compounds were administered at a final concentration of 3 μM or at increasing concentrations (1-3-10 μM) to the apical solution. At the end of each experiment the amiloride sensitive l_SC was measured by adding 3 μM amiloride to the apical compartment. Results are expressed as inhibition in percent of the amiloride effect or as IC50.
With the example compounds given above, the following IC50 values were determined in the Ussing Chamber assay: […]

Structure (SMILES)	pIC50
CCOP(=O)(OCC)c1ccc(CCC[n+]2c(CNC(=O)c3nc(Cl)c(N)nc3N)n(CC)c3cc(OC)ccc32)cc1.O=C([O-])C(F)(F)F [Example 1.1]	8.70
CCn1c(CNC(=O)c2nc(Br)c(N)nc2N)[n+](CCOCCOCCO)c2ccc(OC)cc21.O=C([O-])C(F)(F)F [Example 2.1]	9.00
CC[n+]1c(CNC(=O)c2nc(Cl)c(N)nc2N)n(C2CCN(C(C)=O)CC2)c2ccccc21.O=C[O-] [Example 3.1]	8.30
CC[n+]1c(CNC(=O)c2nc(Cl)c(N)nc2N)n(CCCP(=O)(O)O)c2ccc(OC)cc21.O=C([O-])C(F)(F)F [Example 4.1]	7.25
CCOP(=O)([O-])CCCn1c(CNC(=O)c2nc(Cl)c(N)nc2N)[n+](CC)c2cc(OC)ccc21 [Example 5.1]	7.54
